Data as given in patent US20240400572A1, “COMPOUNDS AND METHODS FOR TREATING CANCERS THAT ARE MGMT DEFICIENT REGARDLESS OF MMR STATUS” (Yale University, priority 2021, published 2024).
“Also recorded” adds a separate entry of the source.

How the values were obtained:
[1] = tested on: LN229 MGMT+/−, MMR+/− cells; experiment: Cell cycle analysis; format: cell-based, human; conditions: 20 μM, 24 to 48 h; cell status given in the value
Description: Cell Cycle Analysis. Cell cycle analysis was performed using integrated Hoechst nucleic acid dye fluorescence. Briefly, integrated Hoechst fluorescence intensity was log 2 transformed and histograms from DMSO-treated cells were used to identify the centers of the 2N and 4N DNA peaks. These values were used to normalize the 2N DNA peak to 1 and the 4N DNA peak to 2. Cells were then classified by normalized log 2 DNA content as GI (0.75-1.25), S (1.25-1.75), or G2 (1.75-2.5) phase cells. The percentage of cells within each phase of the cell cycle was determined for each treatment condition. The three sets of Hoechst-stained cells corresponding to the three separate DNA foci stains were treated as three independent analyses.

[2] = tested on: LN229 MGMT−/MMR+ and MGMT−/MMR− cells; experiment: IR alkaline comet assay; format: cell-based, human; conditions: for effect on IR-induced comet tail, ICL detection (in words) / comet tailing in the absence of IR (in words): MGMT−/MMR+ cells; for effect on IR-induced comet tail, ICL detection (in words): 200 μM for 24 h; for effect on IR-induced comet tail, ICL detection (in words) / rate of ICL formation, DNA mobility after IR (in words): 10 Gy; for comet tailing in the absence of IR (in words): TMZ and KL-50 200 μM, MMC 0.1 or 50 μM; for DNA damage in unirradiated samples (in words) / rate of ICL formation, DNA mobility after IR (in words): MGMT−/MMR− cells, 200 μM, 2, 8 or 24 h; for DNA damage in unirradiated samples (in words): 0 Gy
Description: IR Alkaline Comet Assay. Assay was performed utilizing the CometAssay Kit (Trevigen) according to the alkaline assay protocol, with the addition of slide irradiation post-lysis. Cells were trypsinized, washed with 1×PBS, added to melted Comet LMAgarose (Trevigen), and spread on Trevigen CometSlides at a density of 1000 cells per sample in 50 μL. Lysis solution (Trevigen) with 10% DMSO was added overnight at 4° C. Slides were removed from lysis buffer and irradiated to 0 or 10 Gy using an XRAD 320 X-Ray System (Precision X-Ray) at 320 kV, 12.5 mA, and 50.0 cm SSD, with a 2 mm Al filter and 20 cm×20 cm collimator. Slides were then placed in alkaline buffer (200 mM NaOH, 1 mM EDTA) for 45 min, followed by electrophoresis in 850 mL alkaline buffer for 45 min at 4° C. Slides were washed and stained with SYBR gold (Invitrogen) per Trevigen assay protocol. Slides were imaged on a Cytation 3 imaging reader (BioTek), and comets were analyzed using CometScore 2.0 software (TriTek).
We used a well-established comet assay adapted for ICL detection to determine if ICLs were formed in MGMT− cells treated with KL-50 (4a) (FIG. Z3, A and B). In this assay, cells were sequentially exposed to genotoxins and ionizing radiation, and then analyzed by single cell alkaline gel electrophoresis. Attenuation of the IR-induced comet tail is indicative of ICL formation.

[3] = tested on: LN229 MGMT−/MMR− intracranial tumors; experiment: Intracranial tumor study; format: in vivo, mouse; conditions: 25 mg/kg IP M-F×1 week as printed
[4] = tested on: FANCD2 ubiquitination in LN229 MGMT+/−, MMR+/− cells; experiment: Western blot analysis of FANCD2 ubiquitination; format: cell-based, human
Description: FIGS. ZS9A-ZS9G. […] (FIG. ZS9A) Representative images of micronuclei identification. (FIG. ZS9B) Validation of micronuclei identification using olaparib as positive control. Change in percent cells with 1 micronuclei from baseline (DMSO control) after treatment with olaparib ([…]) for 48 h in LN229 MGMT+/−, MMR+/− cells. Columns, mean; error bars, SD; […] technical replicates; **** p<0.0001. […] (FIG. ZS9G) Western blot analysis of FANCD2 ubiquitination in LN229 MGMT+/−, MMR+/− cells and PD20 FANCD2-deficient cells, complemented with empty vector (FANCD2+EV), wildtype FANCD2 (PD20+FD2) or ubiquitination-mutant FANCD2 (PD20+KR). The % FANCD2 ubiquitination (% FANCD2 Ub.) is quantified as the background-corrected integrated band intensity of the upper band divided by the sum of the background-corrected integrated band intensities of the upper and lower bands. The fold change in % FANCD2 ubiquitination is presented for each cell line relative to DMSO-treated cells. Vinculin serves as loading control. For (FIG. ZS9D), (FIG. ZS9E), and (FIG. ZS9F), points, mean; error bars, SD; n=3 technical replicates.
Western Blotting. […] Where shown, bands were quantified using ImageJ software.

SMILES | cell cycle arrest (in words) [1] | effect on IR-induced comet tail, ICL detection (in words) [2] | comet tailing in the absence of IR (in words) [2] | DNA damage in unirradiated samples (in words) [2] | rate of ICL formation, DNA mobility after IR (in words) [2] | intracranial tumor growth by BLI (in words) [3] | FANCD2 ubiquitination (in words) [4]
NC(=O)c1ncn2c(=O)n(CCF)nnc12 [KL-50, 3-(2-fluoroethyl)-4-oxo-3H,4H-imidazo[4,3-d][1,2,3,5]tetrazine-8-carboxamide] | increasing G2 arrest on progression from 24 to 48 h in MGMT−/MMR+ cells; also recorded: attenuated G2 arrest in MGMT−/MMR− cells; also recorded: moderate G2 arrest in MGMT+/MMR+ cells | reduced the % DNA in the tail to levels similar to those seen for 0.1 μM MMC | induced tailing | induced maximal damage at 2 h, which decreased over time | time-dependent decrease in DNA mobility | effective | specifically in MGMT− cells
Cn1nnc2c(C(N)=O)ncn2c1=O [TMZ, temozolomide, reference compound] | This effect in MGMT−/MMR− cells was absent; also recorded: moderate G2 arrest in MGMT+/MMR+ cells | did not reduce DNA migration following IR | induced tailing | induced maximal damage at 2 h, which decreased over time | did not induce a statistically significant decrease in DNA migration within 24 h | only transiently suppressed tumor growth | induced FANCD2 ubiquitination but only in MGMT−/MMR+ cells
